Data published in article PMC6844378, “Structure activity relationship studies on Amb639752: toward the identification of a common pharmacophoric structure for DGKα inhibitors” (Journal of Enzyme Inhibition and Medicinal Chemistry, 2019).
“Also recorded” adds a separate entry of the source.

Key:
DGKζ = molecular target: T1, DGKζ (Homo sapiens, UniProt Q13574); assay: Isoform specificity, DGKζ homogenates of transfected 293T cells; format: biochemical; settings: 100 µM; 293T homogenates
T1 construct: expressed in transfected cells; host or cells: 293T cells, transient transfection (Lipofectamine 3000), crude homogenate
Experimental: 293T cells were transiently transfected with indicated DGK isoform plasmid DNA using Lipofectamine 3000, Invitrogen (Carlsbad, CA). Forty eight hours after transfection, cells were harvested and homogenised with a 29 G-needle using 500 µL of homogenate buffer for each dish and immediately stored in aliquots at –80 °C. Cells transfected with empty vector were used as controls, overexpressed DGK has an activity >50 folds the endogenous.
Essentionally, the same procedure was followed as reported previously in Velnati et al.[9] In brief, DGK activity was assayed by measuring initial velocities (5 min at 27 °C) in presence of saturating substrate concentrations. Reaction conditions: 0.9 µg/µL 1,2-dioleoyl-sn-glycerol, 5 mM ATP, 0.01 µCi/µL [γ^32P]-ATP, 1 mM sodium orthovanadate, 10 mM MgCl2, 1.2 mM EGTA in 7.5 mM Hepes pH 8[12]. Reaction mixture is assembled mixing enzyme (24.5 µL of homogenate), 100× inhibitor or DMSO (0.5 µL), 5× ATP solution (10 µL of 25 mM ATP, 0.05 µCi/µL [γ^32P]-ATP (Perkin-Elmer, Milan, Italy), 5 mM sodium orthovanadate, 50 mM MgCl2), and 3.3× DAG solution (15 µL of 3 µg/µL 1,2-dioleoyl-sn-glycerol resuspended by sonication in 4 mM EGTA in 25 mM Hepes pH 8). […] TLC was run 10 cm and dried before radioactive signals were detected by GS-250 molecular imager and was quantified by quantity one (Bio-Rad, Hercules, CA) software assuring the absence of saturated spots. […]

serotonin receptors [1] = test system: serotonin receptors; set-up: method as in PMID 30611057; settings: cited from earlier work
serotonin receptors [2] = assay: Superoxide anion production: serotonin effect on PMA-induced oxidative burst in monocytes; format: cell-based; settings: drugs 10 µM, 1 h; serotonin 1 µM; PMA 1 µM 30 min; human monocytes
Experimental: Human monocytes were isolated from healthy anonymous human buffy coats (provided by the Transfusion Service of Ospedale Maggiore della Carità, Novara, Italy) by the standard technique of dextran sedimentation and Histopaque (density = 1.077 g cm^3, Sigma-Aldrich, Milano, Italy) gradient centrifugation (400×g, 30 min, room temperature) and recovered by fine suction at the interface, as described previously. Purified monocytes populations were obtained by adhesion (90 min, 37 °C, 5% CO2) in serum-free RPMI 1640 medium (Sigma-Aldrich, Milano, Italy) supplemented with 2 mM glutamine and antibiotics. Cell viability (trypan blue dye exclusion) was usually >98%.
All the experiments were performed in triplicate using cells isolated from each single donor.
Monocytes (250,000 cells/well) were treated for 1 h with the indicated drugs (10 µM) with or without serotonin (1 µM). Then, cells were stimulated with phorbol 12-myristate 13-acetate (PMA; Sigma-Aldrich, Milano, Italy) 1 µM for 30 min. PMA is a well-known stimulus that induces a strong and significant respiratory burst via PKC activation. Superoxide anion production was then evaluated by the superoxide dismutase (SOD)-sensitive cytochrome C (CytC) reduction assay and expressed as nmoles CytC reduced/10^6 cells/30 min, using an extinction coefficient of 21.1 mM. To avoid interference with spectrophotometrical recordings, cells were incubated with RPMI 1640 without phenol red, antibiotics, and FBS.
To this purpose, we measured the effect of serotonin on PMA-induced oxidative burst in human monocytes. As previously shown, 1 µM serotonin reverses the oxidative burst to control values.
Figure 8. […] Results are expressed as n moles of reduced cytochrome C/10^6 cells. Data are means ± SEM of 10 independent experiments performed in triplicate.

T1 sequence (Q13574 whole entry, species assumed, canonical isoform): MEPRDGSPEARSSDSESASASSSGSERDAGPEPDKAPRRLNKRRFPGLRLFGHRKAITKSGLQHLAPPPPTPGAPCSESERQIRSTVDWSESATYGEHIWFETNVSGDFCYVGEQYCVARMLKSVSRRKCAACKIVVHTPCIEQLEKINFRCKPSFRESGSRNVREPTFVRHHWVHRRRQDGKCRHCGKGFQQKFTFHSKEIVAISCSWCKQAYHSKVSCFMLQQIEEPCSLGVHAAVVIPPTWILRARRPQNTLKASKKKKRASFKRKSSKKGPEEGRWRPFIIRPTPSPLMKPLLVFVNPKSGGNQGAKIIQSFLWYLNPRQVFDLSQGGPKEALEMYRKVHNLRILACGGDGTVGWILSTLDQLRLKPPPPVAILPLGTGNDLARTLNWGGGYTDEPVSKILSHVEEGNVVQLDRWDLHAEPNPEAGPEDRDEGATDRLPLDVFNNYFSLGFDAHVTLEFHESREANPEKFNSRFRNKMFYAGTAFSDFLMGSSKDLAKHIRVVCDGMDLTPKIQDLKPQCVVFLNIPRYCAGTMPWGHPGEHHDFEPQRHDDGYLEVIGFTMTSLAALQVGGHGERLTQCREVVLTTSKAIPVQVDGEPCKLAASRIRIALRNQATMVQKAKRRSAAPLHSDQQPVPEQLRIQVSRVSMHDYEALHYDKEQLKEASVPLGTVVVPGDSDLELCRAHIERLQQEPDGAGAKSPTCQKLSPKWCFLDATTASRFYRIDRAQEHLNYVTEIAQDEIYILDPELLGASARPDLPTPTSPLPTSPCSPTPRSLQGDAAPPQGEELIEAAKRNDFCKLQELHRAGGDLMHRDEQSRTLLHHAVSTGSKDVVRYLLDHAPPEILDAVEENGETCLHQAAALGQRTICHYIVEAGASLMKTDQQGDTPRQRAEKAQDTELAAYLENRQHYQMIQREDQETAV

For `Cc1ccc2c(C(=O)CN3CCN(C(=O)c4ccco4)CC3)c(C)[nH]c2c1` [Amb639752], the “effect on DGKζ activity” value (DGKζ) is listed as “do not have significant effects”, the anti-serotoninergic activity (serotonin receptors [1]) is listed as “no effects on serotonin activity; also recorded: devoid of anti-serotoninergic activity” and the “effect on serotonin action on PMA-induced oxidative burst” value (serotonin receptors [2]) is listed as “had no effect”.
